Values quoted from earlier work in patent US20020012634A1, “Antimicrobial dental materials contraining 2,4,4' -trichloro2' -hydroxydiphenyl ether” (priority 1997, published 2002).

Legend:
[1] = test system: Gram-positive and Gram-negative bacteria as well as fungi, yeasts and viruses
[2] = test system: bacteria; settings: long-term experiments
[3] = test system: plaque bacteria; settings: toothpaste ingredient, dentifrices

For `Oc1cc(Cl)ccc1Oc1ccc(Cl)cc1Cl` [triclosan, 2,4,4′-trichloro-2′-hydroxydiphenyl ether], the “antimicrobial activity, in words” value [1] is listed as “highly effective antimicrobial with a broad spectrum of activity”, the “development of bacterial resistance” value [2] is listed as “no development of bacterial resistance” and the “solubility in organic solvents” value is listed as “soluble in many organic solvents”. The water solubility was “low” and the “effect against plaque bacteria / plaque” value [3] was “effective against plaque bacteria”.
